Results published in US9815863B2, “Hydrogen bond forming fluoro ketolides for treating diseases” (priority 2010, dated 2017).

Experiments:
ribosomes = conditions: literature values for erythromycin binding; read-out: Kd, previously published; cited from earlier work
[1] = test system: S. aureus ribosomes (23S rRNA); assay: RNA footprinting (ribosome chemical probing), wild-type S. aureus ribosomes; assay type: binding; conditions: S. aureus ribosomes, 100 μM antibiotic
Experimental: (§1) Ribosome chemical probing. rRNA probing was done following standard protocols (Merryman, C., and H. F. Noller. 1998. Footprinting and modification-interference analysis of binding sites on RNA, p. 237-253. In C. W. J. Smith (ed.), RNA:Protein Interactions, A Practical Approach. Oxford University Press, Oxford), with minor modifications. Briefly, 200 nM ribosomes were incubated with 100 μM antibiotic in 50 μL of buffer B (80 mM HEPES-KOH [pH 7.8], 20 mM MgCl2, 100 mM NH4Cl, 1.5 mM dithiothreitol) for 10 min at 37° C., followed by 10 min at 20° C. Modifying reagents (dimethyl sulfate [DMS], kethoxal, or 1-cyclohexyl-3-(2-morpholinoethyl)carbodiimide metho p-toluene sulfonate [CMCT]) were added and the modification reaction was carried out for 10 min at 37° C. After quenching the reaction and ethanol precipitation, rRNA was extracted and the distribution of modified nucleotides was assessed by primer extension.
(§2) Interactions of CEM-101 with wild-type E. coli and S. aureus ribosomes in solution. […] 1987. Chloramphenicol, erythromycin, carbomycin and vernamycin B protect overlapping sites in the peptidyl transferase region of 23S ribosomal RNA. Biochimie 69:879-884). Also included in this study was a C3-cladinose cousin of CEM-101, CEM-103, which lacks the C2-linked fluorine atom.

[2] = test system: 2058-dimethylated ribosomes isolated from the S. aureus N315 strain; assay: RNA footprinting of A2058-dimethylated (Erm-modified) ribosomes from S. aureus N315; assay type: binding; conditions: S. aureus N315 ribosomes dimethylated at A2058, drugs at 100 μM
Experimental: as §1
Interaction of CEM-101 with S. aureus ribosomes dimethylated at A2058 by Erm-methyltransferase. Erm-methyltransferase modifies A2058 in 23S rRNA by consecutively adding two methyl groups to the exocyclic amino group of the adenine base. Such modification completely blocks binding of erythromycin and similar macrolides, whereas its effect on binding of ketolides is less clear (Douthwaite, S., L. H. Hansen, and P. Mauvais. 2000. Macrolide-ketolide inhibition of MLS-resistant ribosomes is improved by alternative drug interaction with domain R of 23S rRNA. Mol. Microbiol. 36:183-193; Liu, M., and S. Douthwaite. 2002. Activity of the ketolide telithromycin is refractory to Erm monomethylation of bacterial rRNA. Antimicrob. Agents Chemother. 46:1629-1633). Therefore, interaction of CEM-101 with the ribosomes isolated from a clinical S. aureus strain N315, which carries five chromosomal copies of constitutively expressed ermA gene present in the Tn554 transposon (Kuroda, M., T. Ohta, I. Uchiyama, T. Baba, H. Yuzawa, I. Kobayashi, L. Cui, A. Oguchi, K. Aoki, Y. Nagai, J. Lian, T. Ito, M. Kanamori, H. Matsumaru, A. Maruyama, H. Murakami, A. Hosoyama, Y. Mizutani-Ui, N. K. Takahashi, T. Sawano, R. Inoue, C. Kaito, K. Sekimizu, H. Hirakawa, S. Kuhara, S. Goto, J. Yabuzaki, M. Kanehisa, A. Yamashita, K. Oshima, K. Furuya, C. Yoshino, T. Shiba, M. Hattori, N. Ogasawara, H. Hayashi, and K. Hiramatsu. 2001. Whole genome sequencing of meticillin-resistant Staphylococcus aureacs. Lancet 357:1225-1240) was investigated.
Footprinting analysis was used to test interactions of ketolides (CEM-101 and telithromycin) and cladinose-containing macrolides (CEM-103 and erythromycin) with the 2058-dimethylated ribosomes isolated from the S. aureus N315 strain. Ribosomes were incubated with the drugs (present at 100 μM concentration) and probed by DMS modification. Because dimethylated A2058 blocks progression of reverse transcriptase along the RNA template, a strong reverse transcriptase stop is observed at A2058 on the primer extension gel (Vester, B., and S. Douthwaite. 1994. Domain V of 23S rRNA contains all the structural elements necessary for recognition by the ErmE methyltransferase. J. Bacteriol. 176:6999-7004; Zhong, P., Z. Cao, R. Hammond, Y. Chen, J. Beyer, V. D. Shortridge, L. Y. Phan, S. Pratt, J. Capobianco, K. A. Reich, R. K. Flamm, Y. S. Or, and L. Katz. 1999. Induction of ribosome methylation in MLS-resistant Streptococcus pneumoniae by macrolides and ketolides. Microb. Drug Resist. 5:183-188). Therefore, it is impossible to use footprinting to evaluate interactions of macrolides with this position in the S. aureus N315 ribosomes. […]

[3] = test system: E. coli ribosomes (23S rRNA); assay: RNA footprinting (ribosome chemical probing), wild-type E. coli ribosomes; assay type: binding; conditions: E. coli ribosomes, 100 μM antibiotic
Experimental: as §1, §2

E. coli 70S ribosomes = assay: Saturation (direct) binding of radiolabeled drug to E. coli ribosomes, spin-column
Experimental: (§3) Ribosomes were prepared from E. coli, strain MRE 600, S. aureus strain ATCC 29212, or S. aureus strain N315 by standard protocols (Spedding™, G. 1990. Isolation and analysis of ribosomes from prokaryotes, eukaryotes, and organelles, p. 1-29. In G. Spedding (ed.), Ribosomes and protein synthesis, a practical approach. Oxford University Press, Oxford, United Kingdom; Adams, P. D., P. V. Afonine, G. Bunkoczi, V. B. Chen, I. W. Davis, N. Echols, J. J. Headd, L. W. Hung, G. J. Kapral, R. W. Grosse-Kunstleve, A. J. McCoy, N. W. Moriarty, R. Oeffner, R. J. Read, D. C. Richardson, J. S. Richardson, T. C. Terwilliger, and P. H. Zwart. 2010. PHENIX: a comprehensive Python-based system for macromolecular structure solution. Acta Crystallogr. D. Biol. Crystallogr. 66:213-221).
(§4) Competition binding studies. […]
(§5) Direct antibiotic binding experiments were done by incubating ribosomes at a 100 nM concentration with varying concentrations of radiolabeled drug in a total volume of 160 μL in buffer A (20 mM Tris-HCl [pH 7.5], 10 mM MgCl2, 150 mM NH4Cl, 6 mM 2-mercaptoethanol) at 37° C. for 15 min, then at 20° C. for 10 min. […] Radioactivity was measured in a scintillation counter and used to calculate the amount of the radiolabeled drug bound to ribosomes.

[4] = test system: ribosomes isolated from the S. aureus N315 strain; assay: Binding of [14C]erythromycin to ribosomes from S. aureus N315; conditions: ribosomes from S. aureus N315, dimethylated at A2058
Experimental: Competition binding studies. Binding of erythromycin to E. coli and S. aureus ribosomes and competition experiments were done by size-exclusion chromatography using Bio-Gel P30 spin columns as described in Xiong, L., Y. Korkhin, and A. S. Mankin. 2005. Binding site of the bridged macrolides in the Escherichia coli ribosome. Antimicrob. Agents Chemother. 49:281-288.
Direct antibiotic binding experiments were done by incubating ribosomes at a 100 nM concentration with varying concentrations of radiolabeled drug in a total volume of 160 μL in buffer A (20 mM Tris-HCl [pH 7.5], 10 mM MgCl2, 150 mM NH4Cl, 6 mM 2-mercaptoethanol) at 37° C. for 15 min, then at 20° C. for 10 min. The reactions were loaded onto the spin columns and centrifuged in a swinging-bucket microcentrifuge rotor for 1 min at 1,000 g at room temperature. The flow-through solution was collected; 130 μL was mixed with 5 mL of the scintillation cocktail. Radioactivity was measured in a scintillation counter and used to calculate the amount of the radiolabeled drug bound to ribosomes.
Interaction of CEM-101 with S. aureus ribosomes dimethylated at A2058 by Erm-methyltransferase. Erm-methyltransferase modifies A2058 in 23S rRNA by consecutively adding two methyl groups to the exocyclic amino group of the adenine base. […]

S. aureus 70S ribosomes = assay: Saturation (direct) binding of radiolabeled drug to S. aureus wild-type ribosomes, spin-column
Experimental: as §3, §4, §5

## CC[C@H]1OC(=O)[C@H](C)[C@@H](O[C@H]2C[C@@](C)(OC)[C@@H](O)[C@H](C)O2)[C@H](C)[C@@H](O[C@@H]2O[C@H](C)C[C@H](N(C)C)[C@H]2O)[C@](C)(O)C[C@@H](C)C(=O)[C@H](C)[C@@H](O)[C@]1(C)O [erythromycin]
ribosomes
  Kd: 10 to 100 nM
[1]
  Protection of A752 from DMS modification: fails to protect
[2]
  Protection of A2059 from DMS modification (binding to Erm-modified ribosome): not
  Protection of G2505 from kethoxal modification: did not protect
  Protection of U2609 from modification with CMCT: did not protect
[3]
  Protection of A752 from DMS modification: fails to protect
E. coli 70S ribosomes
  Kd: 66 ± 11 nM
[4]
  Binding to ribosomes: lack of binding
S. aureus 70S ribosomes
  Kd: 11 ± 1 nM
